Source: patent US20210236528A1, “COMPOSITION COMPRISING ISOMERS OF INOSITOL AND ITS USE” (SOCIETE DES PRODUITS NESTLE S.A., priority 2019, published 2021)

Legend:
[1] = Plasma inositol isomers levels by glucose tolerance status (UHPLC-MSMS), withdrawn women from study 2; type: in vivo, human; conditions: endogenous level; for Plasma inositol isomers levels, Mean: no administration; for plasma concentration in subjects with impaired glucose tolerance or type II diabetes in comparison to normal glucose tolerance / average plasma concentration in Asian subjects in comparison to Caucasian subjects: result in words; for average plasma concentration in Asian subjects in comparison to Caucasian subjects: subjects not having prediabetes or type II diabetes
Experimental: (§1) Only withdrawn women from this study 2 were included in this sub-study. Women were from UK (N=46), NZ (N=89), SG (N=117). All the data (anthropometric and biochemical parameters) were collected and measured. Plasma and urine inositol isomers were measured using a new validated UHPLC-MSMS method. Study 2 was approved by different Institutional Review Boards and the study design published (Godfrey K M et al, Trials. 2017 Mar. 20; 18(1):131.). Subjects were classified as normoglycemic (NGT), impaired glucose tolerance (IGT), and type 2 diabetic mellitus (T2DM) based upon the results of fasting glucose and the oral glucose tolerance test (OGTT). Subjects with 2-hours glucose were levels <7.8 mmol/L were considered as normal glucose tolerant (NGT), while those with 2-hour glucose between 7.8-11.1 mmol/L were deemed as having impaired glucose tolerance (IGT). Individuals with fasting plasma glucose (IFG) level 5.6 mmol/L) were classified as having impaired fasting glucose. Both IFG and IGT subjects were grouped together. Subjects with 2-hours glucose >11.1 mmol/L were considered as having type 2 diabetic mellitus (T2DM). NGT group was further divided into 2 sub-groups named NGT with a “favorable” metabolic risk profile (abbreviated NGT_fav) and NGT with an “unfavorable” metabolic risk profile (abbreviated NGT_Unfav) to take into account the hyperinsulinemia affecting subjects in the NGT group. Inclusion criteria for NGT subjects with a favorable risk profile (NGT_fav) were the following ones: BMI<25 for Caucasian and <23 for Asian subjects; waist <80 cm; waist/hip ratio […]; HOMA2-IR<1.21. IGT/IFG and T2DM subjects were also grouped together into a dysglycemic group. In total, […] were reported: NGT_all; NGT_fav; NGT_unfav; IGT/IFG and; T2DM.
(§2) Blood samples were collected into EDTA-containing tubes and spot urine samples were collected and frozen at −80° C. until analysis. For inositol isomers determination, analysis was performed on an Accela UHPLC (Thermo Fisher Scientific Inc., Waltham, Mass., USA) coupled to a TSQ Vantage triple quadrupole (Thermo Fisher Scientific Inc., Waltham, Mass., USA) equipped with a heated electrospray ionization (HESI) source in negative mode. Chromatographic separation was achieved using gradient elution on an UHPLC Acquity BEH Amide (1.7 μm, 2.1 mm×150 mm) column and guard column (Vanguard BEH Amide 1.7 μm, 2.1 mm×10 mm; Waters Corporation, Milford, Mass., USA) at 30° C. at a flow rate of 400 μL/min. Mobile phase consisted of 90% acetonitrile-NH4OH 0.04% (eluent A) and 50% acetonitrile-NH4OH 0.04% (eluent B). Column temperature was kept at 30° C. The injection volumes were 3 μL and 5 μL for urine and plasma respectively. Plasma samples were thawed and briefly vortexed before transferring 100 μL of the sample into a 1.5 mL microtube. 50 μL of [2H6]-myo-inositol, then 500 μL of ACN containing 1% of formic acid were added for protein precipitation. The tubes were vortexed for 1 min and centrifuged at 10,000×g for 3 min. Supernatants were transferred into an SPE Ostro 96 well plate for phospholipid removal. Positive pressure (about 8 psi) was applied for elution and the filtrates were then evaporate to dryness in a vacuum centrifuge (45° C., 5 mbar, 6 h). Dry residues were dissolved in 400 μL of water and transferred into a 0.45 μm centrifugal filter containing 175 mg of mixed bed ion exchange resin Amberlite MB-3. Tubes were spun at 3000×g for 2 min then the filtrates were evaporated to dryness in vacuum centrifuge at 45° C., 5 mbar for 2 h. Finally, residues were reconstituted in vials with 80 μL of ACN/water (60/40) and injected for analysis.
Statistical analysis was performed using R software (version 3.2.3). Mean and standard deviation were calculated. The statistical model used as covariate the glucose tolerance status, the ethnicity, the menstrual cycle, the age of the subjects and the BMI. For some statistical analysis some raw data were log transformed in view of their distribution. […]

[2] = Urinary inositol isomers excretion by glucose tolerance status (UHPLC-MSMS), withdrawn women from study 2; type: in vivo, human; conditions: endogenous, spot urine
Experimental: as §1, §2
Urine samples were thawed and briefly vortexed before transferring 150 μL of sample into a 1.5-mL microtube. 100 μL of [2H6]-myo-inositol was added and the mixture was transferred into a 0.45 μm centrifugal filter containing 175 mg of mixed bed ion exchange resin Amberlite MB-3. […]

Row | SMILES | Plasma inositol isomers levels, Mean ([1]; IGT/IFG group, N=41 women) [µmol/L] | Plasma inositol isomers levels, Mean ([1]; NGT (all) group, N=182 women) [µmol/L] | Plasma inositol isomers levels, Mean ([1]; NGT_Fav group, N=63 women) [µmol/L] | Plasma inositol isomers levels, Mean ([1]; NGT_Unfav group, N=119 women) [µmol/L] | Plasma inositol isomers levels, Mean ([1]; T2DM group, N=26 women) [µmol/L] | Urinary inositol isomers excretion, Mean ([2]; IGT/IFG group) | Urinary inositol isomers excretion, Mean ([2]; NGT (all) group) | Urinary inositol isomers excretion, Mean ([2]; NGT_Fav group) | Urinary inositol isomers excretion, Mean ([2]; NGT_Unfav group) | Urinary inositol isomers excretion, Mean ([2]; T2DM group) | plasma concentration in subjects with impaired glucose tolerance or type II diabetes in comparison to normal glucose tolerance [1] | average plasma concentration in Asian subjects in comparison to Caucasian subjects [1]
1 | OC1C(O)C(O)C(O)C(O)C1O (stereo not shown) [Chiro-inositol] | 0.32 | 0.23 | 0.26 | 0.22 | 0.22 | 0.20 μmol/mmol of creatinine | 0.24 μmol/mmol of creatinine | 0.26 μmol/mmol of creatinine | 0.22 μmol/mmol of creatinine | 0.42 μmol/mmol of creatinine | – | –
2 | O[C@H]1[C@H](O)[C@@H](O)[C@H](O)[C@@H](O)[C@H]1O [Myo-inositol, cis-1,2,3,5-trans-4,6cyclohexanehexol] | 23.23 | 25.91 | 25.44 | 26.16 | 24.66 | 6.35 μmol/mmol of creatinine | 9.21 μmol/mmol of creatinine | 10.86 μmol/mmol of creatinine | 8.33 μmol/mmol of creatinine | 17.97 μmol/mmol of creatinine | lower | lower
3 | O[C@H]1[C@H](O)[C@@H](O)[C@H](O)[C@@H](O)[C@@H]1O [Scyllo-inositol, (1r,2r,3r,4r,5r,6r)-Cyclohexane-1,2,3,4,5,6-hexol] | 0.46 | 0.67 | 0.72 | 0.64 | 0.37 | 3.31 μmol/mmol of creatinine | 5.04 μmol/mmol of creatinine | 6.34 μmol/mmol of creatinine | 4.34 μmol/mmol of creatinine | 3.36 μmol/mmol of creatinine | lower | lower
